Assay results taken from ChEMBL document CHEMBL1201862, “PubChem BioAssay data set” (2004).
Calls of active or inactive are those of the source.

Tests used:
Assay type in all cases: functional
[1] = biological target: T1, Serine/threonine-protein phosphatase (Candida dubliniensis (strain CD36 / CBS 7987 / NCPF 3949 / NRRLY-17841) (Yeast), UniProt B9W6M3); experiment: Fluorescence Cell-Based Secondary Assay to Identify Inhibitors of Calcineurin. [Related pubchem assays (depositor defined):AID1979, AID2007]
T1 sequence (B9W6M3 whole entry): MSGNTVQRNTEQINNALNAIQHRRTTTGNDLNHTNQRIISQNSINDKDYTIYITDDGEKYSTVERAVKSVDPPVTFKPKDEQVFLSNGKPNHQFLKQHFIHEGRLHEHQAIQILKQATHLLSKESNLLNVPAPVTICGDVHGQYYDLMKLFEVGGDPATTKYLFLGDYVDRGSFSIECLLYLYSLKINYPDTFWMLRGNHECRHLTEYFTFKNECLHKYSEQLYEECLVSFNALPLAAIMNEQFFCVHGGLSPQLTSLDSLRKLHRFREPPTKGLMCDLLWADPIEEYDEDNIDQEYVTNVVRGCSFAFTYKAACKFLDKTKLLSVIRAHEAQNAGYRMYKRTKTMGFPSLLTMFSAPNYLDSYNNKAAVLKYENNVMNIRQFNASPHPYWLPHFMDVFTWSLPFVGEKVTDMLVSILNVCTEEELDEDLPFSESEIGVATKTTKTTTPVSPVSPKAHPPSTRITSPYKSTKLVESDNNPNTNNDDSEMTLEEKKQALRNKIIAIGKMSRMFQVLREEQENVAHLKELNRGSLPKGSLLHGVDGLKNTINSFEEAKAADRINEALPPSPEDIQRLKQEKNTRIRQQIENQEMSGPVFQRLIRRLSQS

[2] = biological target: Vascular endothelial growth factor receptor 2 (Homo sapiens, UniProt P35968)
[3] = biological target: STE20-like serine/threonine-protein kinase (Homo sapiens, UniProt Q9H2G2)
[4] = biological target: Proto-oncogene tyrosine-protein kinase Src (Homo sapiens, UniProt P12931);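 note: SRC entry within a kinome-wide kinase profiling panel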
[5] = biological target: Casein kinase I isoform delta (Homo sapiens, UniProt P48730);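 note: measured as one member (CSNK1D) of a kinome panel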
[6] = biological target: Mitogen-activated protein kinase kinase kinase kinase 2 (Homo sapiens, UniProt Q12851);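 note: measured as one member of a kinome-wide kinase panel, with MAP4K2 as the panel entry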
Sequence of Mitogen-activated protein kinase kinase kinase kinase 2 (Q12851 whole entry): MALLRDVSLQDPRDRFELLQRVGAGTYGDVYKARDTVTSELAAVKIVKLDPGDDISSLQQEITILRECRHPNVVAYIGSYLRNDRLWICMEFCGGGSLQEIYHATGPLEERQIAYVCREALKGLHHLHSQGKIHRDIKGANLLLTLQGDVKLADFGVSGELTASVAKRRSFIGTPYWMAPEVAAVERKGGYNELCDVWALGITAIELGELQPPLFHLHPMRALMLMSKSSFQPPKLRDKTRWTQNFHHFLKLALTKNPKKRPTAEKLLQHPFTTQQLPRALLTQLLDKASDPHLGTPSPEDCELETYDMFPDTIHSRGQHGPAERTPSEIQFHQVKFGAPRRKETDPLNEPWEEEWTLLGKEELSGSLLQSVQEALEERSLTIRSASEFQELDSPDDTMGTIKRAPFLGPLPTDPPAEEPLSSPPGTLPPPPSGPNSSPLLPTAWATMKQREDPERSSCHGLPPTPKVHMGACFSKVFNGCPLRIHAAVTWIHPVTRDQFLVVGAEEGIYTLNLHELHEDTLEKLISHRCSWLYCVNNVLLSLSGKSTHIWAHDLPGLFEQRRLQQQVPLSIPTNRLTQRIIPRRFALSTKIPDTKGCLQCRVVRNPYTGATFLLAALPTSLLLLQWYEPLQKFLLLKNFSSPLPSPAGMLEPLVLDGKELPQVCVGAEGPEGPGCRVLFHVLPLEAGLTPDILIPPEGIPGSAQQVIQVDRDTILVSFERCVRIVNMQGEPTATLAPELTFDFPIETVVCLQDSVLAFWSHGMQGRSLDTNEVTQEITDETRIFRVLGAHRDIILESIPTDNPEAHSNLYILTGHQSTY

[7] = biological target: Calcium/calmodulin-dependent protein kinase type II subunit beta (Homo sapiens, UniProt Q13554)
Sequence of Calcium/calmodulin-dependent protein kinase type II subunit beta (Q13554 whole entry): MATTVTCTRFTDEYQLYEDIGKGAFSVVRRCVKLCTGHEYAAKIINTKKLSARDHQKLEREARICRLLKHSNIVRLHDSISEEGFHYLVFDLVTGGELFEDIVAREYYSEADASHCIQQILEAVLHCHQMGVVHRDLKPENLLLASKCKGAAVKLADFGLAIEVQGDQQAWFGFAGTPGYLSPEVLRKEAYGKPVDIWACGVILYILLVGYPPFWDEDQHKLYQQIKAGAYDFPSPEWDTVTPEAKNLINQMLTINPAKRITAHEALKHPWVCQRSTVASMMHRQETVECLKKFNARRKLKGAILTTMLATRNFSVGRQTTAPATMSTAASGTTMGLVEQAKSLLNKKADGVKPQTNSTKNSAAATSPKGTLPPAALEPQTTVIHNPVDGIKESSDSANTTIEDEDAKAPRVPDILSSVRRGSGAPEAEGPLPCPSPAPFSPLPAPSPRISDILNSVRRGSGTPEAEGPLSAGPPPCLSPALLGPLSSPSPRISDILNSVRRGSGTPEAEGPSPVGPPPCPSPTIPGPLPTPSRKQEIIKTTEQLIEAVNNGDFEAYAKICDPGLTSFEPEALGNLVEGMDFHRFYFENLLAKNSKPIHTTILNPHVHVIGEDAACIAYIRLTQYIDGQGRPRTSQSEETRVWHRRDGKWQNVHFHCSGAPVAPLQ

[8] = biological target: RAC-alpha serine/threonine-protein kinase (Homo sapiens, UniProt P31749);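 note: AKT1 affinity measured as one member of a kinome-wide kinase profiling panel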
Sequence of RAC-alpha serine/threonine-protein kinase (P31749 whole entry): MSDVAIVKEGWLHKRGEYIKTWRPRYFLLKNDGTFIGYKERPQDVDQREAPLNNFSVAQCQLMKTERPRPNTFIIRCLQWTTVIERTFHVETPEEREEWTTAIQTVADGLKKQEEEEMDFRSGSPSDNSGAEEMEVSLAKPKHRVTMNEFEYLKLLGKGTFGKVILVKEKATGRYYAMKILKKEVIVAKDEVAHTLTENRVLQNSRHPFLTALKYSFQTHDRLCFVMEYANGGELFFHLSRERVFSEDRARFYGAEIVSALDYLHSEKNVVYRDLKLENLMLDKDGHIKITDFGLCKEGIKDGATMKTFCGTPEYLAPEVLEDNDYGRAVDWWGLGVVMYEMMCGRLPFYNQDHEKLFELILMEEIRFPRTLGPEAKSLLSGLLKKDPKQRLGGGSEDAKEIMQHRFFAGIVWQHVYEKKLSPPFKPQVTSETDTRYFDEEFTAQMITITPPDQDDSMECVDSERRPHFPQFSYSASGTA

[9] = biological target: Serine/threonine-protein kinase Nek2 (Homo sapiens, UniProt P51955)
Sequence of Serine/threonine-protein kinase Nek2 (P51955 whole entry): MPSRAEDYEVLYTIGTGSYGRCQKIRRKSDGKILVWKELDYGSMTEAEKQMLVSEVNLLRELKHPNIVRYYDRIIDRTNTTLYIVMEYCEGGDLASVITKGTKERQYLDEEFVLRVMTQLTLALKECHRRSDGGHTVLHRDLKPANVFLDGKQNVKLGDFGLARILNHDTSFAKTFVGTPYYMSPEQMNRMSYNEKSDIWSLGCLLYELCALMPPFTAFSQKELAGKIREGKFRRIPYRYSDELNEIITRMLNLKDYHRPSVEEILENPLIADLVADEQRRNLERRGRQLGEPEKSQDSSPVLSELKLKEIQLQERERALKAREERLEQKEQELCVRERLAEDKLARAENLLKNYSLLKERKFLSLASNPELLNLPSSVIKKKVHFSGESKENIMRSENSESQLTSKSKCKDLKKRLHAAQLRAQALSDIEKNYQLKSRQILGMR

[10] = biological target: Vascular endothelial growth factor receptor 1 (Homo sapiens, UniProt P17948);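 note: measured within a kinome-wide profiling panel, FLT1 as the panel member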
[11] = biological target: cGMP-dependent protein kinase 1 (Homo sapiens, UniProt Q13976);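 note: value from a kinome panel screen with PRKG1 as the panel member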
Sequence of cGMP-dependent protein kinase 1 (Q13976 whole entry): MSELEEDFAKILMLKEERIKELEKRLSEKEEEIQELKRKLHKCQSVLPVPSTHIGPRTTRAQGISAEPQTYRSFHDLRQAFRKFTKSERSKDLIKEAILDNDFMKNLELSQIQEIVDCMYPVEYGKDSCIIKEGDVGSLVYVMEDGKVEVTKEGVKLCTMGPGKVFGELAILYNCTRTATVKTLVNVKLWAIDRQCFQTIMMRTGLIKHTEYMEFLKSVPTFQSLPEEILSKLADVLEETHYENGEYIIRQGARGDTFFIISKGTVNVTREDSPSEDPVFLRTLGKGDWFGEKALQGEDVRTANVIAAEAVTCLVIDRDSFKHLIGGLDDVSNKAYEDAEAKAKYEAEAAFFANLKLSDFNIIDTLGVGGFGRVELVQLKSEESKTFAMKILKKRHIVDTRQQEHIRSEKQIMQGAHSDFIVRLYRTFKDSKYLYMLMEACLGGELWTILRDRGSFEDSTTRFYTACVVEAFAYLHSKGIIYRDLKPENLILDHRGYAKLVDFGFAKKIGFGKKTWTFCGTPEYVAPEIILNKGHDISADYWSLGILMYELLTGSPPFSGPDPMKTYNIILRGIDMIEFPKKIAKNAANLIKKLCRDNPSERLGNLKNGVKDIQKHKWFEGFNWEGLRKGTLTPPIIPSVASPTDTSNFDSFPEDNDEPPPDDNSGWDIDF

[12] = biological target: Serine/threonine-protein kinase N2 (Homo sapiens, UniProt Q16513)
Sequence of Serine/threonine-protein kinase N2 (Q16513 whole entry): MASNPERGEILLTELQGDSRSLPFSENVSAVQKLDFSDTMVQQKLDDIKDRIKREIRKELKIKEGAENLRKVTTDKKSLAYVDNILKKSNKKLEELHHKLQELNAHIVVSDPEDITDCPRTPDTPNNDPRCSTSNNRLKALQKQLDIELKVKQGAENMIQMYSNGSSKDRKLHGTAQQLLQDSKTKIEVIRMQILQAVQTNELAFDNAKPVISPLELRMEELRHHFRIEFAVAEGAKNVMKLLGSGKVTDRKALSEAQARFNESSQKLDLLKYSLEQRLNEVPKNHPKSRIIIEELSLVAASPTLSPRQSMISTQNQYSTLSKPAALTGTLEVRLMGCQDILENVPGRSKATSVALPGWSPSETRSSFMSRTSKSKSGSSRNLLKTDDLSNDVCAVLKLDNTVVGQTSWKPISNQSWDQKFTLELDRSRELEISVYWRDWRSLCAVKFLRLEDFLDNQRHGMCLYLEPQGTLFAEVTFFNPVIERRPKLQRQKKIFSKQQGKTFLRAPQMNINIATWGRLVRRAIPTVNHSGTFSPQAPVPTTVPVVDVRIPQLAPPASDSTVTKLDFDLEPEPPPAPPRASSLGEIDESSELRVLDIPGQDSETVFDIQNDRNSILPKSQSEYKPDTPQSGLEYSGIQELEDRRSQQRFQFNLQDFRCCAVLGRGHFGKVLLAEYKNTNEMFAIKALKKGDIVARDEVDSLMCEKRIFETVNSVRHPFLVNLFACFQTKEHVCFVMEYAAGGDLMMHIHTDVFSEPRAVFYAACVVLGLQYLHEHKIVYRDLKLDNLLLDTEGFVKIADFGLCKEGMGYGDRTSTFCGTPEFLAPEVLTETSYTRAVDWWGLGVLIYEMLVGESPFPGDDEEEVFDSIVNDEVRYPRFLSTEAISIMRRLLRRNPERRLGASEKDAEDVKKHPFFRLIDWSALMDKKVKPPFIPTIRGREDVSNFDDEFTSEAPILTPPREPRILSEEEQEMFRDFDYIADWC

[13] = biological target: Macrophage colony-stimulating factor 1 receptor (Homo sapiens, UniProt P07333);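 note: value comes from the Navigating the Kinome screening panel, CSF1R member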
Sequence of Macrophage colony-stimulating factor 1 receptor (P07333 whole entry): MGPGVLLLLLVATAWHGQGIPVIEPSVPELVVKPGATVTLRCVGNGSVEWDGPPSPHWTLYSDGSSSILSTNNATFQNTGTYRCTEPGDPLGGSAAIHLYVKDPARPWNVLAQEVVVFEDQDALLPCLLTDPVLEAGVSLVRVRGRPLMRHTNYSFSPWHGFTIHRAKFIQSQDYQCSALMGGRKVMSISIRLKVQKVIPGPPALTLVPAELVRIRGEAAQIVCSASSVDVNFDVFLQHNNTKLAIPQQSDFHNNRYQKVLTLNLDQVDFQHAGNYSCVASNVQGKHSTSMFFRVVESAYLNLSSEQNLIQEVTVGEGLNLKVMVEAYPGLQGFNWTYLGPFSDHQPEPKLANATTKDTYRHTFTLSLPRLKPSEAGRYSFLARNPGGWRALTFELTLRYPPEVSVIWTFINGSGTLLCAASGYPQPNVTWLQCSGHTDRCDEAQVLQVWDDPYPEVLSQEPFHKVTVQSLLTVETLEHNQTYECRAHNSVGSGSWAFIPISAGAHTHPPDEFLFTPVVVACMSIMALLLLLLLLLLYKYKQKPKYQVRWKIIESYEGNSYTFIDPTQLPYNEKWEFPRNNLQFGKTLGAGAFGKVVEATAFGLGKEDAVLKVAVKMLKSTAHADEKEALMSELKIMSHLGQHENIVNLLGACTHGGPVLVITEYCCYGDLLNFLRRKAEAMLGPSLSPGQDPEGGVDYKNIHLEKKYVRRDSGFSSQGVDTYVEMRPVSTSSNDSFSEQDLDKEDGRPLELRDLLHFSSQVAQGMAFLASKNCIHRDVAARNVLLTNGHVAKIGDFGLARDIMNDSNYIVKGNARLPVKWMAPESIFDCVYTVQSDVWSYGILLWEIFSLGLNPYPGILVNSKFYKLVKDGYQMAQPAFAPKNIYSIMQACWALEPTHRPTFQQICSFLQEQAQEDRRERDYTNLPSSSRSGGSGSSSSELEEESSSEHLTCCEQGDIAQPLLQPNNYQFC

[14] = biological target: Serine/threonine-protein kinase Chk1 (Homo sapiens, UniProt O14757);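 note: measured as one member of a kinome-wide kinase profiling panel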

| SMILES | EC50 [1] | Ki [2] | Ki [3] | Ki [4] | Ki [5] | Ki [6] | Ki [7] | Ki [8] | Ki [9] | Ki [10] | Ki [11] | Ki [12] | Ki [13] | Ki [14] |
| --- | --- | --- | --- | --- | --- | --- | --- | --- | --- | --- | --- | --- | --- | --- |
| COc1ccc(-c2nnc(NC(=O)c3ccc(F)cc3)o2)cc1 | > 285 µM (inactive) |  |  |  |  |  |  |  |  |  |  |  |  |  |
| CCn1c(-c2nonc2N)nc2cnc(Oc3cccc(NC(=O)c4ccc(OCCN5CCOCC5)cc4)c3)cc21 [GSK-269962A] |  | > 7.94 µM (inactive) | 1.58 µM (active) | > 2 µM (inactive) | > 7.94 µM (inactive) | > 6.31 µM (inactive) | 7.94 µM (active) | 0.501 µM (active) | > 10 µM (inactive) | > 0.398 µM (inactive) | 0.158 µM (active) | 0.0251 µM (active) | > 2.51 µM (inactive) | > 7.94 µM (inactive) |
